Structures are written as SMILES.

The target of this experiment is Glycogen synthase kinase-3 beta (Homo sapiens, UniProt P49841). In words: concentration-response blocking of human GSK3B – biochemical, luminescence, cell-free homogeneous, retest, dose response (AID 434954).
Sequence of Glycogen synthase kinase-3 beta (P49841 whole entry): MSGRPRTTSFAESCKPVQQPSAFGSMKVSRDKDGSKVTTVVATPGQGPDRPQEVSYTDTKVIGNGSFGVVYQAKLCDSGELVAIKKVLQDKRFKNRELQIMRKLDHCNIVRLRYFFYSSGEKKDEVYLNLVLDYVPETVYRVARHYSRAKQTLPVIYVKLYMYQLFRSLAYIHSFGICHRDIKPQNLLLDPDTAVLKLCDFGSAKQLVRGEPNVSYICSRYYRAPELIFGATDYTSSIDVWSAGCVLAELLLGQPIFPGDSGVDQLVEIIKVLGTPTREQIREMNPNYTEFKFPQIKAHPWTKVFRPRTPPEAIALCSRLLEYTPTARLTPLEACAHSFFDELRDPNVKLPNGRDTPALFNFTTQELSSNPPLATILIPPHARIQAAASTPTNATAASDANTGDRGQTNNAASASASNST
With `O=C(c1ccc(Cl)nc1)N1CCN(C/C=C/c2ccccc2)CC1` [SMR000352615], the EC50 was above 300 µM. The result for `O=C(c1cccs1)c1coc2ccc(O)cc12` reads 4.73 µM; that for `CCN(CC)C(=O)Cn1cc(C(=O)C(=O)Nc2ccc3c(c2)OCCO3)c2ccccc21`, above 300 µM; that for `Cn1nc(-c2ccccn2)nc2c(=O)n(C)c(=O)nc1-2` [1,6-dimethyl-3-(2-pyridinyl)pyrimido[5,4-e][1,2,4]triazine-5,7(1H,6H)-dione], 46.2 µM.

As for `O=C(O)c1cc(-c2ccc(C=NN3C(=O)C4C5C=CC(CC5)C4C3=O)o2)ccc1Cl` (centres undefined) [SMR000274176], the EC50 was above 300 µM. As for `Cc1cccc(Nc2nc(N)c([N+](=O)[O-])c(NCCO)n2)c1` [2-(6-Amino-5-nitro-2-m-tolylamino-pyrimidin-4-ylamino)-ethanol], the figure is 5.91 µM; as for `c1cncc(-c2nc(NCCCn3ccnc3)c3ccccc3n2)c1` [SMR000384722], 30.7 µM. The result for `CCC(C)Nc1nc(N)c([N+](=O)[O-])c(NCCO)n1` (centres undefined) [MLS000332774] reads 14.7 µM; that for `Nc1nc(Nc2cccc(Cl)c2)nc(NCc2ccco2)c1[N+](=O)[O-]` [MLS000333252], 6.01 µM. In turn, `Cc1oc2c(CN(C)C)c(O)ccc2c(=O)c1-c1ccc2ccccc2n1` [8-[(dimethylamino)methyl]-2-methyl-7-oxidanyl-3-quinolin-2-yl-chromen-4-one] had an EC50 above 300 µM. The result for `CCOC(=O)CSc1ccc2nnc(-c3ccncc3)n2n1` reads 1.9 µM; that for `O=C(COc1ccccc1[N+](=O)[O-])NN=Cc1ccccn1` [(2-Nitro-phenoxy)-acetic acid [1-pyridin-2-yl-meth-(E)-ylidene]-hydrazide], above 300 µM. As for `Cc1ccc(C)c(Nc2nc(-c3ccncc3)nc3ccccc23)c1`, the figure is above 300 µM.

`Nc1nc(NCc2ccccc2)nc(Nc2ccc(F)cc2)c1[N+](=O)[O-]` [2-N-benzyl-4-N-(4-fluorophenyl)-5-nitropyrimidine-2,4,6-triamine] returned an EC50 above 300 µM. `CC(C)CCNc1nc(N)c([N+](=O)[O-])c(NCCO)n1` [2-[[6-amino-2-(3-methylbutylamino)-5-nitropyrimidin-4-yl]amino]ethanol] gave an EC50 of 6.82 µM. That is a single-digit micromolar value. As for `CCOC(=O)C1(Cc2cccc(F)c2)CCN(Cc2cn(CC)nc2C)CC1` [1-[(1-ethyl-3-methyl-4-pyrazolyl)methyl]-4-[(3-fluorophenyl)methyl]-4-piperidinecarboxylic acid ethyl ester], the figure is above 300 µM; as for `Nn1c(SCc2cccc(Br)c2)nnc1-c1ccncc1` [3-(3-Bromo-benzylsulfanyl)-5-pyridin-4-yl-[1,2,4]triazol-4-ylamine], above 300 µM. The result for `Cc1ccnc(NC(=O)CCC(=O)N(CC(=O)NCc2ccccc2)Cc2cccs2)c1` reads 16.9 µM; that for `Fc1ccc(CSc2nnc(-c3ccco3)o2)cc1`, above 300 µM; that for `O=[N+]([O-])c1ccc(N2CCCCCC2)c([N+](=O)[O-])c1` [1-(2,4-Dinitro-phenyl)-azepane], above 300 µM. As for `CC(C)Nc1nc(-c2cccnc2)nc(-c2ccccc2)c1C#N` [4-phenyl-6-(propan-2-ylamino)-2-pyridin-3-yl-pyrimidine-5-carbonitrile], the figure is above 300 µM. As to `COC(=O)c1ccc2c(=O)n(CC3CCCO3)c(SCC(=O)Nc3ccccc3Cl)nc2c1` (centres undefined) [2-[[2-(2-chloroanilino)-2-keto-ethyl]thio]-4-keto-3-(tetrahydrofurfuryl)quinazoline-7-carboxylic acid methyl ester], the EC50 was above 300 µM. As to `O=[N+]([O-])c1ccccc1Oc1ccc(Cl)c2cccnc12` [MLS000721853], the EC50 is above 300 µM. As for `COc1cc(CN=Nc2ccc(C(F)(F)F)cn2)ccc1O` [(4E)-2-methoxy-4-[[[5-(trifluoromethyl)-2-pyridinyl]hydrazo]methylidene]-1-cyclohexa-2,5-dienone], the figure is 10.1 µM.
